This note sets out measurements from patent publication US20160333006A1, “ARYL LACTA KINASE INHIBITORS” (Bristol-Myers Squibb Company, priority 2014, published 2016).

The first test deals with T1, GST-Xa-hAAK1 (Homo sapiens, UniProt Q2M2I8).
T1 construct: made in house
T1 sequence (Q2M2I8 whole entry): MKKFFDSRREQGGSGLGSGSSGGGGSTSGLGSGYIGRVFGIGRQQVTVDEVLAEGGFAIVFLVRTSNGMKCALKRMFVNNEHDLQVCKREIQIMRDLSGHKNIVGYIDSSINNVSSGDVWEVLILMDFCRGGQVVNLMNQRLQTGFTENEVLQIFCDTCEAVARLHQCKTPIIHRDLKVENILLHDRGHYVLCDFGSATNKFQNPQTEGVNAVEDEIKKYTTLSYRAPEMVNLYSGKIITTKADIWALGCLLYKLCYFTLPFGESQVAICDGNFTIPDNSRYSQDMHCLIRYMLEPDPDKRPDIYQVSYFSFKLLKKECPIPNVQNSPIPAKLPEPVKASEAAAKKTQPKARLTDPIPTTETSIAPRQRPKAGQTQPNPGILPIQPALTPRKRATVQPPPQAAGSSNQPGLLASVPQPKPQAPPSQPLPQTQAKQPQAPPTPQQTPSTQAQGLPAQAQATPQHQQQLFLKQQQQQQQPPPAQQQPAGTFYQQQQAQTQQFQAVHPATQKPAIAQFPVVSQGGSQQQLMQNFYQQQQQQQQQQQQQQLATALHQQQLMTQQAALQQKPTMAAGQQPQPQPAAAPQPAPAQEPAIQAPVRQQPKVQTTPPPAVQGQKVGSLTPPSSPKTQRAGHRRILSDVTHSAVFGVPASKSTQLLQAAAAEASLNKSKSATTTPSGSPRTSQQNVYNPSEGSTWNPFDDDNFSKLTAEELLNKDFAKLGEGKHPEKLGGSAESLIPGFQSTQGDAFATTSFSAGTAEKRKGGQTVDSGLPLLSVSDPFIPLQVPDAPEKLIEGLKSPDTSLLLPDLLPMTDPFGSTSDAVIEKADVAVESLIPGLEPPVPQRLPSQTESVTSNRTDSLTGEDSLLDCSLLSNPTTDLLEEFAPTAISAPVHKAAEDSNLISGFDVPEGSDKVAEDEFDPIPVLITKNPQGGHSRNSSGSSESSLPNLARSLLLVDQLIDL
The test can be described thus: AAK1 kinase assay. The format is biochemical. The settings on record: ATP 22 μM; 3 hours at room temperature. How it is done: The assays were performed in U-bottom 384-well plates. […] The reactions were initiated by the combination of bacterially expressed, GST-Xa-hAAK1 with substrates and test compounds. The reactions were incubated at room temperature for 3 hours and terminated by adding 60 μl of 35 mM EDTA buffer to each sample. The reactions were analyzed on the Caliper LabChip 3000 (Caliper, Hopkinton, Mass.) by electrophoretic separation of the fluorescent substrate and phosphorylated product. […] Compounds were dissolved at 10 mM in dimethylsulfoxide (DMSO) and evaluated at eleven concentrations. IC50 values were derived by non-linear regression analysis.
The term IC50 denotes the concentration needed to halve the response being measured. As for `Cc1nccc2c1c(=O)n(C)c1cc(OCC(O)CNC(C)C)ccc21` (stereo not shown) [Example 147, 8-(2-hydroxy-3-(isopropylamino)propoxy)-4,6-dimethylbenzo[c][2,7]naphthyridin-5(6H)-one], the IC50 stood at 1330 nM.

The same test, now with this note: ATP 22 μM; given as IC50 range.
With `COc1ccc2c3ccnc(C)c3c(=O)n(C)c2c1` [Example 144, 8-methoxy-4,6-dimethylbenzo[c][2,7]naphthyridin-5(6H)-one], the IC50 fell in the range of 100 to 2000 nM.
On to `CC(C)NCC(O)COc1ccc2c3ccncc3c(=O)n(C)c2c1` (stereo not shown) [Example 146, 8-(2-hydroxy-3-(isopropylamino)propoxy)-6-methylbenzo[c][2,7]naphthyridin-5(6H)-one], for which the IC50 fell in the range of 100 to 2000 nM.
On the same count and under the same terms, for `Cc1nccc2c1c(=O)n(C)c1cc(OCC(O)CNC(C)C)c(Br)cc21` (stereo not shown) [Example 149, 9-bromo-8-(2-hydroxy-3-(isopropylamino)propoxy)-4,6-dimethylbenzo[c][2,7]naphthyridin-5(6H)-one] the value was 10 to 100 nM; for `CC(C)CC(C)COc1ccc2c3ccncc3c(=O)n(C)c2c1` (stereo not shown) [Example 150, 8-((2,4-dimethylpentyl)oxy)-6-methylbenzo[c][2,7]naphthyridin-5(6H)-one], 10 to 100 nM; for `CC(C)CCCOc1ccc2c3ccncc3c(=O)n(C)c2c1` [Example 151, 6-methyl-8-((4-methylpentyl)oxy)benzo[c][2,7]naphthyridin-5(6H)-one], 10 to 100 nM.
`Cc1nccc2c1c(=O)n(C)c1cc(OC[C@@H](O)CC(C)C)ccc21` [Example 152, (S)-8-((2-hydroxy-4-methylpentyl)oxy)-4,6-dimethylbenzo[c][2,7]naphthyridin-5(6H)-one]: the IC50 lay within 10 to 100 nM.
As to `Cc1nccc2c1c(=O)n(C)c1cc(OCC(O)COC(C)C)ccc21` (stereo not shown) [Example 153, 8-(2-hydroxy-3-isopropoxypropoxy)-4,6-dimethylbenzo[c][2,7]naphthyridin-5(6H)-one], the IC50 lay within 100 to 2000 nM.
Regarding `CC(C)CC(C)COc1cc2c(cc1Br)c1ccncc1c(=O)n2C` (stereo not shown) [Example 154, 9-bromo-8-((2,4-dimethylpentyl)oxy)-6-methylbenzo[c][2,7]naphthyridin-5(6H)-one], the IC50 lay within 10 to 100 nM.
On to `Cc1nccc2c1c(=O)n(C)c1cc(OCC(C)CC(C)C)ccc21` (stereo not shown) [Example 155, 8-((2,4-dimethylpentyl)oxy)-4,6-dimethylbenzo[c][2,7]naphthyridin-5(6H)-one], for which the IC50 lay within 100 to 2000 nM.
The same measure, in the same setting: for `Cc1nccc2c1c(=O)n(C)c1cc(OCCCC(C)C)ccc21` [Example 156, 4,6-dimethyl-8-((4-methylpentyl)oxy)benzo[c][2,7]naphthyridin-5(6H)-one] the value was 10 to 100 nM; for `CC(C)CC(C)COc1ccc2c3ccncc3c(=O)n(C)c2c1` (stereo not shown) [Example 157, 8-((2,4-dimethylpentyl)oxy)-6-methylbenzo[c][2,7]naphthyridin-5(6H)-one], 10 to 100 nM; for `CC(C)CC(C)COc1ccc2c3ccncc3c(=O)n(C)c2c1` (stereo not shown) [Example 158, 8-((2,4-dimethylpentyl)oxy)-6-methylbenzo[c][2,7]naphthyridin-5(6H)-one], 10 to 100 nM.
